PMC8151276, “An Integrated Approach toward NanoBRET Tracers for Analysis of GPCR Ligand Engagement” (Molecules, 2021)

Target: T1, RXFP1 (Homo sapiens, UniProt Q9HBX9)
T1 construct: purchased Promega (in-house HiBiT-GPCR construct library, NanoBRET)
T1 sequence (Q9HBX9 1-757): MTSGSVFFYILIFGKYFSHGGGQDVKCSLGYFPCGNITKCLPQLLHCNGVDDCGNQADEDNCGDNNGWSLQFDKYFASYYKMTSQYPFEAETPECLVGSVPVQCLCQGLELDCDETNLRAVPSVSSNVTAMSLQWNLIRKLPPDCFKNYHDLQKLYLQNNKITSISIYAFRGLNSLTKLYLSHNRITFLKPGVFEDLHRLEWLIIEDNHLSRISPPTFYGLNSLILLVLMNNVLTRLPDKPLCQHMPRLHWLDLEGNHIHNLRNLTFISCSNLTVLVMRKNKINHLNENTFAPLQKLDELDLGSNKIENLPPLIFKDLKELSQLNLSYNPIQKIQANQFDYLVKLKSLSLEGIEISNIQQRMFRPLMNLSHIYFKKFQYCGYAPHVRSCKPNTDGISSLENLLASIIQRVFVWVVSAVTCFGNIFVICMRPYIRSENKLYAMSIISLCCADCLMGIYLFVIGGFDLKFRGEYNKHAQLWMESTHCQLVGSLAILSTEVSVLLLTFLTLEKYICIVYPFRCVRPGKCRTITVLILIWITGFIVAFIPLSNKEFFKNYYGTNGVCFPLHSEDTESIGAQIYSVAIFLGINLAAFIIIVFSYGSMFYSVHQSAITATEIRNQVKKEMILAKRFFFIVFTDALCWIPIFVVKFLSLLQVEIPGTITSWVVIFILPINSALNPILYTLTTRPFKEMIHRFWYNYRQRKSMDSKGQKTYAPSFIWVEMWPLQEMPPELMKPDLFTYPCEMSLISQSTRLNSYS
Assay: NanoBRET screen HiBiT-RXFP1 in HEK293
Assay type: binding
Experimental: Each tracer candidate was screened across the entire library of HiBiT-GPCR constructs using NanoBRET as the detection modality. As depicted in Figure 4A, the specificity of interactions was evaluated through decrease in BRET due to competitive displacement of a bound tracer by excess parental compound. Each tracer was analyzed for binding to each HiBiT-GPCR fusion in the absence and in the presence of competing parental compound. Briefly, HEK293 cells were transfected with HiBiT-GPCR constructs diluted into promoterless DNA to reduce expression and maximize translocation to the cell surface. Each tracer candidate was then screened at concentrations of 1 μM and 0.1 μM across cells expressing these fusions. Cells were treated for 1.5 h with tracer either alone or in the presence of 20 μM competing parental compound (i.e., control). BRET was measured upon addition of purified LgBiT and subsequent complementation with HiBiT genetically fused to a GPCR. The specificity of interactions was assessed through a decrease in BRET signal due to competitive displacement of the bound tracer. To further gauge the robustness of these interactions, the fold response over the control (i.e., BRETtracer/BRETcontrol) was calculated. We chose a 1.5-fold response, which translates to ≥7-fold signal over noise as the minimal threshold required to score an interaction as positive.
HiBiT-GPCR DNA constructs were diluted in 10 mM Tris pH 8 to a final concentration of 0.01 μg/μL, arrayed in 96-well plates and stored at −20 °C. For transfection, HEK293 cells were suspended in Opti-MEM (without phenol red) supplemented with 2% fetal bovine serum (Seradigm) and 100 units/mL penicillin–streptomycin (Gibco) at a final concentration of 220,000 cells/mL and dispensed into white 96-well plates at 90 μL/well. Subsequent transfections and screens were carried using an Agilent Bravo Automated Liquid Handling Platform. First, the 96-well HiBiT DNA arrays were diluted 25-fold in Opti-MEM (without serum or phenol red) to a final concentration of 0.0004 μg/μL and 20 μL of the diluted DNAs were transferred into new 96-well plates. Next, promoterless carrier DNA (1 μg/μL) was diluted 25-fold (0.04 μg/μL) and then dispensed into the diluted arrays at 20 μL/well. Following brief mixing, Viafect transfection reagent (Promega) diluted 16-fold into Opti-MEM was dispensed into the plates at 40 μL/well. After mixing by pipetting, plates were incubated for 10 min on the pipetting station deck. The DNA-transfection reagent complexes were then added to plates containing cells. To facilitate the screen, 10 μL of DNA-transfection reagent complexes were added in duplicates to the top 4 and bottom 4 rows, resulting in two identical 48-well arrays per plate. Plates with transfected cells were incubated for 18–20 h at 37 °C/5% CO2. A screen of each tracer across the entire library using two different concentrations requires duplicate plates of transfected cells. Depending on the number of tracers being screened, transfections can be scaled up using the same ratios. The next day, for each tracer, four 20× screening solutions in tracer dilution buffer (Promega) were prepared: two duplicates at final concentration of 20 μM and two duplicates at a final concentration of 2 μM. […] The four resulting solutions were diluted 4-fold in Opti-MEM without serum or phenol red to generate 5× solutions (5 µM and 0.5 µM tracer +/− 100 μM competing compound). To screen the library, a BioTek MultiFlo FX liquid dispenser was used to dispense 22.5 µL of tracer solution to the top 4 rows and 22.5 µL tracer + competing compound solution to the 4 bottom rows. Plates were briefly mixed on an orbital shaker and incubated for 1.5 h at room temperature. […] Plates were briefly mixed on an orbital shaker and incubated for 15 min to allow complementation.

SMILES | NanoBRET Fold Response (RXFP1, tracer 0.1μM) | NanoBRET Fold Response (RXFP1, tracer 1μM) | other results
O=C(CCc1ccc2n1[B-](F)(F)[N+]1=C(c3ccc[nH]3)C=CC1=C2)NCc1ccc(C(=O)NCCOCCC(=O)N[C@@H]2CC[C@@]3(O)[C@H]4Cc5ccc(O)c6c5[C@@]3(CCN4CC3CC3)[C@H]2O6)cc1 [Naltrexone-3-NB590] | 1.31 | 1.24 | –
CCCn1c(=O)c2[nH]c(-c3ccc(OCC(=O)NCCNC(=O)CCOCCNC(=O)c4ccc(CNC(=O)CCc5ccc6n5[B-](F)(F)[N+]5=C(c7ccc[nH]7)C=CC5=C6)cc4)cc3)nc2n(CCC)c1=O [XAC-3-NB590] | 1.04 | 0.93 | –
CC(C)N(CC[C@H](c1ccccc1)c1cc(CCNC(=O)c2ccc(CNC(=O)CCc3ccc4n3[B-](F)(F)[N+]3=C(c5ccc[nH]5)C=CC3=C4)cc2)ccc1O)C(C)C [Tolterodine-BZ-NB590] | 1.12 | 1.23 | –
COc1ccc2[nH]c(-c3ccc(CNC(=O)CCOCCOCCOCCOCCNC(=O)CCc4ccc5n4[B-](F)(F)[N+]4=C(c6ccc[nH]6)C=CC4=C5)cc3)c(CCNC(C)=O)c2n1 [AzomelatoninICO9-2-NB590] | – | – | NanoBRET Fold Response (0.1μM tracer): 1.23; NanoBRET Fold Response (1μM tracer): 1.24
CN1CCN(C2=Nc3cc(Cl)ccc3N(CC(=O)NCCOCCOCCOCCOCCNC(=O)CCc3ccc4n3[B-](F)(F)[N+]3=C(c5ccc[nH]5)C=CC3=C4)c3ccccc32)CC1 [Clozapine-c-2-NB590] | – | – | NanoBRET Fold Response (RXFP1, 0.1μM tracer): 0.85; NanoBRET Fold Response (RXFP1, 1μM tracer): 1.27
COc1ccccc1N1CCN(CCCCN2C(=O)c3ccc(CNC(=O)CCOCCNC(=O)c4ccc(CNC(=O)CCc5ccc6n5[B-](F)(F)[N+]5=C(c7ccc[nH]7)C=CC5=C6)cc4)cc3C2=O)CC1 [NAN-190-3-NB590] | 0.88 | 0.90 | –
Cc1nc2n(c(=O)c1CCN1CCC(c3noc4cc(F)ccc34)CC1)CCCC2OC(=O)NCCOCCOCCOCCOCCNC(=O)CCc1ccc2n1[B-](F)(F)[N+]1=C(c3ccc[nH]3)C=CC1=C2 (centres unmarked) [Risperidone-2-NB590] | 1.26 | 0.90 | –
O=C(CCOCCOCCOCCOCCNC(=O)CCc1ccc2n1[B-](F)(F)[N+]1=C(c3ccc[nH]3)C=CC1=C2)NCCCN1CCN(C2=Nc3ccccc3Oc3ccc(Cl)cc32)CC1 [Loxapine-a-2-NB590] | 0.94 | 0.80 | –
COc1ccccc1N1CCN(CCCCN2C(=O)c3ccc(CNC(=O)CCOCCOCCOCCOCCNC(=O)CCc4ccc5n4[B-](F)(F)[N+]4=C(c6ccc[nH]6)C=CC4=C5)cc3C2=O)CC1 [NAN-190-2-NB590] | 0.78 | 0.92 | –
CC(C)N(CC[C@H](c1ccccc1)c1cc(CCNC(=O)CCOCCOCCOCCOCCNC(=O)CCc2ccc3n2[B-](F)(F)[N+]2=C(c4ccc[nH]4)C=CC2=C3)ccc1O)C(C)C [Tolterodine-2-NB590] | 1.11 | 0.81 | –
N#CN=C(NCCCOc1cccc(CN2CCCCC2)c1)NCCNC(=O)CCOCCOCCOCCOCCNC(=O)CCc1ccc2n1[B-](F)(F)[N+]1=C(c3ccc[nH]3)C=CC1=C2 [Aminopotentidine-2-NB590] | 0.79 | 1.28 | –
CCOC(=O)c1cc(C#N)c(N2CCC(C(=O)NS(=O)(=O)Cc3ccccc3/C=C/C(=O)NCCNC(=O)CCc3ccc4n3[B-](F)(F)[N+]3=C(c5ccc[nH]5)C=CC3=C4)CC2)nc1C [AZD1283-1-NB590] | – | – | NanoBRET Fold Response (RXFP1, 0.1μM): 1.16; NanoBRET Fold Response (RXFP1, 1μM): 0.49
CN(C)CCC=C1c2ccccc2CCc2ccc(C(=O)NCCNC(=O)CCOCCOCCOCCOCCNC(=O)CCc3ccc4n3[B-](F)(F)[N+]3=C(c5ccc[nH]5)C=CC3=C4)cc21 [Amitriptyline-b-2-NB590] | – | – | NanoBRET Fold Response (tracer at 0.1μM): 0.90; NanoBRET Fold Response (tracer at 1μM): 1.13
O=C(CCc1ccc2n1[B-](F)(F)[N+]1=C(c3ccc[nH]3)C=CC1=C2)NCCOCCOCCNC(=O)OCCOCCN1CCN(C2=Nc3ccccc3Sc3ccccc32)CC1 [Quetiapine-a-2-NB590] | 0.53 | 1.01 | –
Cc1cc2c(s1)Nc1ccccc1N=C2N1CCN(CCCNC(=O)CCOCCOCCOCCOCCNC(=O)CCc2ccc3n2[B-](F)(F)[N+]2=C(c4ccc[nH]4)C=CC2=C3)CC1 [Olanzapine-a-2-NB590] | 1.25 | 0.79 | –
CN1CCN(C2=Nc3cc(Cl)ccc3Nc3ccc(CNC(=O)CCOCCOCCOCCOCCNC(=O)CCc4ccc5n4[B-](F)(F)[N+]4=C(c6ccc[nH]6)C=CC4=C5)cc32)CC1 [Clozapine-b-2-NB590] | – | – | NanoBRET Fold Response (RXFP1, 0.1μM tracer): 0.90; NanoBRET Fold Response (RXFP1, 1μM tracer): 0.75
COc1ccc2c(n1)c(CCNC(C)=O)cn2CCNC(=O)CCc1ccc2n1[B-](F)(F)[N+]1=C(c3ccc[nH]3)C=CC1=C2 [Azamelatonin-1-NB590] | – | – | NanoBRET Fold Response (0.1μM tracer): 1.38; NanoBRET Fold Response (1μM tracer): 1.20
O=C(CCc1ccc2n1[B-](F)(F)[N+]1=C(c3ccc[nH]3)C=CC1=C2)NCc1ccc(C(=O)NCCOCCOCCNCC(O)COc2cccc3ccccc23)cc1 (centres unmarked) [Propranolol-3-NB590] | – | – | NanoBRET Fold Response (RXFP1, 0.1μM): 0.90; NanoBRET Fold Response (RXFP1, 1μM): 0.90
O=C(CCOCCOCCOCCOCCNC(=O)CCc1ccc2n1[B-](F)(F)[N+]1=C(c3ccc[nH]3)C=CC1=C2)NCCCN1CCN(C2=Nc3cc(Cl)ccc3Nc3ccccc32)CC1 [Clozapine-a-2-NB590] | – | – | NanoBRET Fold Response (RXFP1, 0.1μM tracer): 1.12; NanoBRET Fold Response (RXFP1, 1μM tracer): 1.23
